Measurements taken from publication PMC3495668, “Serotonin-Induced Hypersensitivity via Inhibition of Catechol O-Methyltransferase Activity” (Molecular Pain, 2012).

T1: catechol O-methyltransferase (COMT) (Sus scrofa, UniProt F1RHN3)
T1 construct: Purified COMT protein (derived from porcine liver), biotinylated at surface lysines
T1 sequence (F1RHN3 1-270): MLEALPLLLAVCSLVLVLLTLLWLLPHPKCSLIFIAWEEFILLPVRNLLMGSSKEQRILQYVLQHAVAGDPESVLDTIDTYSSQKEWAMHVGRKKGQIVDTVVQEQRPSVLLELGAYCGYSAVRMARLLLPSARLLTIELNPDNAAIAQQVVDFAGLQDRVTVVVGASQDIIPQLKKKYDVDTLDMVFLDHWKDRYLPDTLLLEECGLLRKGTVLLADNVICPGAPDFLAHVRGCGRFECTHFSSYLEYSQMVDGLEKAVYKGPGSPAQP


What was measured:
[1] = biological target: T1, catechol O-methyltransferase (COMT); test: SPR (Biacore […]); also radiolabelled SAM activity assay, Ki,app […]; assay type: binding
[2] = substrate: Oc1ccccc1O; test: radiolabelled SAM methylation assay, Michaelis-Menten KM; assay type: biochemical, Sus scrofa; conditions: S-adenosyl-L-methionine; Mg2+ ([…] MgCl2) catechol substrate site

Molecule	Kd [1]	Km [2]
NCCc1c[nH]c2ccc(O)cc12 [serotonin]	~87 µM	
catechol O-methyltransferase (COMT) (Sus scrofa) (protein, Purified COMT) MLEALPLLLAVCSLVLVLLTLLWLLPHPKCSLIFIAWEEFILLPVRNLLMGSSKEQRILQYVLQHAVAGDPESVLDTIDTYSSQKEWAMHVGRKKGQIVDTVVQEQRPSVLLELGAYCGYSAVRMARLLLPSARLLTIELNPDNAAIAQQVVDFAGLQDRVTVVVGASQDIIPQLKKKYDVDTLDMVFLDHWKDRYLPDTLLLEECGLLRKGTVLLADNVICPGAPDFLAHVRGCGRFECTHFSSYLEYSQMVDGLEKAVYKGPGSPAQP		16 µM
